Assay: mouse plasma pharmacokinetic parameters, late-stage follow-up, in vivo study for V1a-R antagonist project, LC-MS (AID 743028)
Conditions: C57Bl6 mouse plasma PK, IV/PO; for Cmax: peak plasma concentration; for AUC last: plasma exposure; for Tmax: time to peak

O=C(C1CCN(c2ccc(Cl)cn2)CC1)N(CC1CC1)c1ccc(Cl)cc1
half-life (IV dosing 1 mg/kg): 2.22 h
MRT inf (IV dosing 1 mg/kg, mean residence time): 1.65 h
Cmax (IV dosing 1 mg/kg): 19.5 µM
clearance (IV dosing 1 mg/kg, plasma clearance): 2.9 mL/min/kg
AUC last (IV dosing 1 mg/kg): 10.5 µM·h
Tmax (IV dosing 1 mg/kg): 0.08 h
Vss (IV dosing 1 mg/kg, volume of distribution): 0.26 L/kg
half-life (PO dosing 10 mg/kg): 2.88 h
bioavailability (PO dosing 10 mg/kg, oral bioavailability): 6.54%
Cmax (PO dosing 10 mg/kg): 3.08 µM
apparent oral clearance (CL/F) (PO dosing 10 mg/kg, plasma clearance): 35.1 mL/min/kg
AUC last (PO dosing 10 mg/kg): 10.5 µM·h
Tmax (PO dosing 10 mg/kg): 0.667 h

— PubChem BioAssay AID743028 (The Scripps Research Institute Molecular Screening Center, 2013)
